In ChEMBL document CHEMBL3132823, “Novel radioiodinated 1,3,4-oxadiazole derivatives with improved in vivo properties for SPECT imaging of -amyloid plaques” (Medchemcomm, 2014):
Blank lines part the entries; values can stand above or below the compound they belong to. The source made the active and inactive calls. The rule behind the calls is not given here.

Columns and labels:
Blood [1] = assay: Biodistribution in iv dosed ddY mouse blood measured per gram of tissue after 10 mins by automatic gamma counting; assay type: ADME, organism-based; settings: in vivo
Intestine [2] = assay: Biodistribution in iv dosed ddY mouse intestine measured per gram of tissue after 60 mins by automatic gamma counting; assay type: ADME, organism-based; settings: in vivo, 1 h
Spleen [3] = assay: Biodistribution in iv dosed ddY mouse spleen measured per gram of tissue after 30 mins by automatic gamma counting; assay type: ADME, organism-based; settings: in vivo, 0.5 h
Kidney [4] = assay: Biodistribution in iv dosed ddY mouse kidney measured per gram of tissue after 30 mins by automatic gamma counting; assay type: ADME, organism-based; settings: in vivo, 0.5 h
Kidney [5] = assay: Biodistribution in iv dosed ddY mouse kidney measured per gram of tissue after 10 mins by automatic gamma counting; assay type: ADME, organism-based; settings: in vivo
Spleen [6] = assay: Biodistribution in iv dosed ddY mouse spleen measured per gram of tissue after 60 mins by automatic gamma counting; assay type: ADME, organism-based; settings: in vivo, 1 h
Intestine [7] = assay: Biodistribution in iv dosed ddY mouse intestine measured per gram of tissue after 2 mins by automatic gamma counting; assay type: ADME, organism-based; settings: in vivo
Stomach [8] = assay: Biodistribution in iv dosed ddY mouse stomach measured per organ after 2 mins by automatic gamma counting; assay type: ADME, organism-based; settings: in vivo
Liver [9] = assay: Biodistribution in iv dosed ddY mouse liver measured per gram of tissue after 30 mins by automatic gamma counting; assay type: ADME, organism-based; settings: in vivo, 0.5 h
Pancreas [10] = assay: Biodistribution in iv dosed ddY mouse pancreas measured per gram of tissue after 10 mins by automatic gamma counting; assay type: ADME, organism-based; settings: in vivo
Liver [11] = assay: Biodistribution in iv dosed ddY mouse liver measured per gram of tissue after 2 mins by automatic gamma counting; assay type: ADME, organism-based; settings: in vivo
Stomach [12] = assay: Biodistribution in iv dosed ddY mouse stomach measured per organ after 10 mins by automatic gamma counting; assay type: ADME, organism-based; settings: in vivo
Plasma = assay: Metabolic stability in mouse plasma at 11 kBq after 1 hr at 37 degC by HPLC analysis; assay type: ADME, cell-free
Pancreas [13] = assay: Biodistribution in iv dosed ddY mouse pancreas measured per gram of tissue after 30 mins by automatic gamma counting; assay type: ADME, organism-based; settings: in vivo, 0.5 h
Blood [14] = assay: Biodistribution in iv dosed ddY mouse blood measured per gram of tissue after 30 mins by automatic gamma counting; assay type: ADME, organism-based; settings: in vivo, 0.5 h
Intestine [15] = assay: Biodistribution in iv dosed ddY mouse intestine measured per gram of tissue after 10 mins by automatic gamma counting; assay type: ADME, organism-based; settings: in vivo
Heart [16] = assay: Biodistribution in iv dosed ddY mouse heart measured per gram of tissue after 30 mins by automatic gamma counting; assay type: ADME, organism-based; settings: in vivo, 0.5 h
Heart [17] = assay: Biodistribution in iv dosed ddY mouse heart measured per gram of tissue after 10 mins by automatic gamma counting; assay type: ADME, organism-based; settings: in vivo
Pancreas [18] = assay: Biodistribution in iv dosed ddY mouse pancreas measured per gram of tissue after 2 mins by automatic gamma counting; assay type: ADME, organism-based; settings: in vivo
Intestine [19] = assay: Biodistribution in iv dosed ddY mouse intestine measured per gram of tissue after 30 mins by automatic gamma counting; assay type: ADME, organism-based; settings: in vivo, 0.5 h
Heart [20] = assay: Biodistribution in iv dosed ddY mouse heart measured per gram of tissue after 2 mins by automatic gamma counting; assay type: ADME, organism-based; settings: in vivo
Stomach [21] = assay: Biodistribution in iv dosed ddY mouse stomach measured per organ after 30 mins by automatic gamma counting; assay type: ADME, organism-based; settings: in vivo, 0.5 h
Brain [22] = assay: Biodistribution in iv dosed ddY mouse brain measured per gram of tissue after 10 mins by automatic gamma counting; assay type: ADME, organism-based; settings: in vivo
Pancreas [23] = assay: Biodistribution in iv dosed ddY mouse pancreas measured per gram of tissue after 60 mins by automatic gamma counting; assay type: ADME, organism-based; settings: in vivo, 1 h
Spleen [24] = assay: Biodistribution in iv dosed ddY mouse spleen measured per gram of tissue after 10 mins by automatic gamma counting; assay type: ADME, organism-based; settings: in vivo
Liver [25] = assay: Biodistribution in iv dosed ddY mouse liver measured per gram of tissue after 10 mins by automatic gamma counting; assay type: ADME, organism-based; settings: in vivo
Brain [26] = assay: Biodistribution in iv dosed ddY mouse brain measured per gram of tissue after 30 mins by automatic gamma counting; assay type: ADME, organism-based; settings: in vivo, 0.5 h
Blood [27] = assay: Biodistribution in iv dosed ddY mouse blood measured per gram of tissue after 2 mins by automatic gamma counting; assay type: ADME, organism-based; settings: in vivo
Liver [28] = assay: Biodistribution in iv dosed ddY mouse liver measured per gram of tissue after 60 mins by automatic gamma counting; assay type: ADME, organism-based; settings: in vivo, 1 h
Blood [29] = assay: Biodistribution in iv dosed ddY mouse blood measured per gram of tissue after 60 mins by automatic gamma counting; assay type: ADME, organism-based; settings: in vivo, 1 h
Kidney [30] = assay: Biodistribution in iv dosed ddY mouse kidney measured per gram of tissue after 60 mins by automatic gamma counting; assay type: ADME, organism-based; settings: in vivo, 1 h
Brain [31] = assay: Biodistribution in iv dosed ddY mouse brain measured per gram of tissue after 60 mins by automatic gamma counting; assay type: ADME, organism-based; settings: in vivo, 1 h
Heart [32] = assay: Biodistribution in iv dosed ddY mouse heart measured per gram of tissue after 60 mins by automatic gamma counting; assay type: ADME, organism-based; settings: in vivo, 1 h
Kidney [33] = assay: Biodistribution in iv dosed ddY mouse kidney measured per gram of tissue after 2 mins by automatic gamma counting; assay type: ADME, organism-based; settings: in vivo
Brain [34] = assay: Biodistribution in iv dosed ddY mouse brain measured per gram of tissue after 2 mins by automatic gamma counting; assay type: ADME, organism-based; settings: in vivo
Spleen [35] = assay: Biodistribution in iv dosed ddY mouse spleen measured per gram of tissue after 2 mins by automatic gamma counting; assay type: ADME, organism-based; settings: in vivo
Stomach [36] = assay: Biodistribution in iv dosed ddY mouse stomach measured per organ after 60 mins by automatic gamma counting; assay type: ADME, organism-based; settings: in vivo, 1 h
[37] = Octanol-phosphate buffer partition coefficient, log p of the compound at pH 7.4 by automatic gamma counting; assay type: physicochemical
Mus musculus [38] = assay: In vivo binding affinity to amyloid beta plaques in iv dosed Tg2576 transgenic mouse brain after 70 mins by autoradiography analysis; assay type: functional, organism-based; settings: tested as the 125I-labelled form
[39] = biological target: T1, Amyloid-beta precursor protein (Homo sapiens, UniProt P05067); assay: Inhibition of [125I]IMPY binding to amyloid beta (1 to 42) aggregates (unknown origin) by gamma counting
[40] = biological target: T1, Amyloid-beta precursor protein; assay: In vitro binding affinity to amyloid beta plaques in human AD brain at 148 kBq after 1 hr incubation at room temperature by autoradiography analysis; settings: tested as the 125I-labelled form
Mus musculus [41] = assay: In vivo binding affinity to amyloid beta plaques in iv dosed wild type mouse brain after 70 mins by autoradiography analysis; assay type: functional, organism-based; settings: tested as the 125I-labelled form
Mus musculus [42] = assay: In vivo binding affinity to amyloid beta plaques in iv dosed wild type mouse brain at 44 to 48 MBq after 20 to 80 mins by SPECT study; assay type: functional, organism-based; settings: 44 to 48 M, tested as the 125I-labelled form
Mus musculus [43] = assay: In vivo binding affinity to amyloid beta plaques in iv dosed Tg2576 transgenic mouse brain at 44 to 48 MBq after 20 to 80 mins by SPECT study; assay type: functional, organism-based; settings: 44 to 48 M, tested as the 125I-labelled form

T1 sequence (P05067 whole entry): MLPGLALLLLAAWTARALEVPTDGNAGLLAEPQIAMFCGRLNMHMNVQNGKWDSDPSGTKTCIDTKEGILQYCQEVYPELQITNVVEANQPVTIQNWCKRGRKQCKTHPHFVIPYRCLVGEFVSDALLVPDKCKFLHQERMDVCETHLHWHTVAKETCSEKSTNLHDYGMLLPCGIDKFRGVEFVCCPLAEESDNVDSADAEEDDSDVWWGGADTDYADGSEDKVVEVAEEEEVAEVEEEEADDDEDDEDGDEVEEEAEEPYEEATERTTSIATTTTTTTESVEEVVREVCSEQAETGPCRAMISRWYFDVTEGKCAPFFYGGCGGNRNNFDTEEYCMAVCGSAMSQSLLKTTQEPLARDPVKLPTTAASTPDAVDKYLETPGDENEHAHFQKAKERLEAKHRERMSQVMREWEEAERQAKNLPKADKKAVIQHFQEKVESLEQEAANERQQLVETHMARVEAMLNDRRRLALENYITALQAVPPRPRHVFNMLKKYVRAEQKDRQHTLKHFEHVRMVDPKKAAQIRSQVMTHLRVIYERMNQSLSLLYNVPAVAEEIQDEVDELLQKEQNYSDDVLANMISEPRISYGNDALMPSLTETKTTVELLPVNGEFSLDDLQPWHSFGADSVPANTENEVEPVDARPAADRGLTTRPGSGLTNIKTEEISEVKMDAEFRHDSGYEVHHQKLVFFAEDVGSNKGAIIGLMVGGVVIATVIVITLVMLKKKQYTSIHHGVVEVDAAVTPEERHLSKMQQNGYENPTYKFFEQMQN

Drug uptake (Blood [1]): 2.33 %ID | Drug uptake (Intestine [2]): 8.57 %ID | Drug uptake (Spleen [3]): 1.72 %ID | Drug uptake (Kidney [4]): 2.96 %ID | Drug uptake (Kidney [5]): 4.61 %ID | Drug uptake (Spleen [6]): 1.74 %ID | Drug uptake (Intestine [7]): 1.5 %ID | Drug uptake (Stomach [8]): 0.91 %ID | Drug uptake (Liver [9]): 3.86 %ID | Drug uptake (Pancreas [10]): 3.07 %ID | Drug uptake (Liver [11]): 6.41 %ID | Drug uptake (Stomach [12]): 2.49 %ID | Stability (Plasma): Stable | Drug uptake (Pancreas [13]): 1.67 %ID | Drug uptake (Blood [14]): 1.97 %ID | Drug uptake (Intestine [15]): 3.38 %ID | Drug uptake (Heart [16]): 1.31 %ID | Drug uptake (Heart [17]): 2.15 %ID | Drug uptake (Pancreas [18]): 4.92 %ID | Drug uptake (Intestine [19]): 5.29 %ID | Drug uptake (Heart [20]): 4.48 %ID | Drug uptake (Stomach [21]): 7.25 %ID | Drug uptake (Brain [22]): 3.03 %ID | Drug uptake (Pancreas [23]): 1.27 %ID | Drug uptake (Spleen [24]): 3.01 %ID | Drug uptake (Liver [25]): 7.44 %ID | Drug uptake (Brain [26]): 1.05 %ID | Drug uptake (Blood [27]): 1.93 %ID | Drug uptake (Liver [28]): 2.61 %ID | Drug uptake (Blood [29]): 1.79 %ID | Drug uptake (Kidney [30]): 2.99 %ID | Drug uptake (Brain [31]): 0.4 %ID | Drug uptake (Heart [32]): 1.13 %ID | Drug uptake (Kidney [33]): 6.43 %ID | Drug uptake (Brain [34]): 3.88 %ID | Drug uptake (Spleen [35]): 2.97 %ID | Drug uptake (Stomach [36]): 10.24 %ID
SMILES: CN(C)c1ccc(-c2nnc(-c3ccc([125I])cc3)o2)cn1

logD [37]: 2.06 | Ki [39]: 24.8 nM | inhibition [39]: Dose-dependent effect | Activity [40]: Active
SMILES: CN(C)c1ccc(-c2nnc(-c3ccc(I)cc3)o2)cn1
Activity (Mus musculus [38]): Active | Activity (Mus musculus [41]): inactive

Drug uptake (Blood [1]): 1.65 %ID | Drug uptake (Intestine [2]): 12.08 %ID | Drug uptake (Spleen [3]): 1.39 %ID | Drug uptake (Kidney [4]): 2.95 %ID | Drug uptake (Kidney [5]): 4.59 %ID | Drug uptake (Spleen [6]): 1.21 %ID | Drug uptake (Intestine [7]): 2.28 %ID | Drug uptake (Stomach [8]): 0.86 %ID | Drug uptake (Liver [9]): 8.42 %ID | Drug uptake (Pancreas [10]): 2.46 %ID | Drug uptake (Liver [11]): 6.06 %ID | Drug uptake (Stomach [12]): 2.01 %ID | Stability (Plasma): Stable | Drug uptake (Pancreas [13]): 1.56 %ID | Drug uptake (Blood [14]): 1.67 %ID | Drug uptake (Intestine [15]): 4.08 %ID | Drug uptake (Heart [16]): 1.27 %ID | Drug uptake (Heart [17]): 2.39 %ID | Drug uptake (Pancreas [18]): 5.15 %ID | Drug uptake (Intestine [19]): 8.77 %ID | Drug uptake (Heart [20]): 5.76 %ID | Drug uptake (Stomach [21]): 5.67 %ID | Drug uptake (Brain [22]): 2.63 %ID | Drug uptake (Pancreas [23]): 1.28 %ID | Drug uptake (Spleen [24]): 1.74 %ID | Drug uptake (Liver [25]): 11.5 %ID | Drug uptake (Brain [26]): 0.87 %ID | Drug uptake (Blood [27]): 1.82 %ID | Drug uptake (Liver [28]): 5.94 %ID | Drug uptake (Blood [29]): 1.76 %ID | Drug uptake (Kidney [30]): 2.3 %ID | Drug uptake (Brain [31]): 0.48 %ID | Drug uptake (Heart [32]): 1.14 %ID | Drug uptake (Kidney [33]): 8.85 %ID | Drug uptake (Brain [34]): 4.12 %ID | Drug uptake (Spleen [35]): 2.67 %ID | Drug uptake (Stomach [36]): 7.9 %ID
SMILES: CN(C)c1ccc(-c2nnc(-c3cccc([125I])c3)o2)cn1

logD [37]: 2.06 | Ki [39]: 13.6 nM | inhibition [39]: Dose-dependent effect | Activity [40]: Active
SMILES: CN(C)c1ccc(-c2nnc(-c3cccc(I)c3)o2)cn1
Activity (Mus musculus [38]): Active | Activity (Mus musculus [42]): inactive | Activity (Mus musculus [41]): inactive | Activity (Mus musculus [43]): Active

Ki [39]: 3.91 nM
SMILES: CN(C)c1ccc(-c2nnc(-c3ccc(I)cc3)o2)cc1
